Here are results for 15 compounds from US11613546B2, “Substituted pyridotriazine compounds and uses thereof” (Gilead Sciences, Inc., priority 2021, dated 2023).

Usually CC50 stands for the concentration at which the toxic effect on the cells reaches its halfway point.

Format in all cases: cell-based
The test system of one data set is HIV-1 (IIIB). The data set is described as follows: Antiviral assay in MT-4 cells. The note with it: Human immunodeficiency virus 1, IIIB, MT4, 120 h, HIV-1 IIIB infected MT-4 cells, 5 days, Cell Titer Glo; read-out: MT4 EC50. Here is the method:
Antiviral Assay in MT-4 Cells
(§1) Compounds were tested in a high-throughput 384-well assay format for their ability to inhibit the replication of HIV-1 (IIIB) in MT-4 cells. Compounds were serially diluted (1:3) in DMSO on 384-well polypropylene plates and further diluted 200-fold into complete RPMI media (10% FBS, 1% P/S) using the Biotek Micro Flow and Labcyte ECHO acoustic dispenser. Each plate contained up to 8 test compounds, with negative (No Drug Control) and 5 μM AZT positive controls. MT-4 cells were pre-infected with 10 μL of either RPMI (mock-infected) or a fresh 1:250 dilution of HIV-1 IIIB concentrated virus stock. Infected and uninfected MT-4 cells were further diluted in complete RPMI media and added to each plate using a Micro Flow dispenser. After 5 days incubation in a humidified and temperature controlled incubator (37° C.), Cell Titer Glo (Promega) was added to the assay plates and chemiluminescence read using an Envision plate-reader. EC50 values were defined as the compound concentration that causes a 50% decrease in luminescence signal, and were calculated using a sigmoidal dose-response model to generate curve fits.
On the technique in general: Cellular ATP, detected with luciferase, serves as a proxy for viable cell number.

Data set [1] in a line: Cytotoxicity assay in MT-4 cells. The note with it: human. On the procedure: as §1, with “fits. Cytotoxicity Assay in MT-4 Cells Assays were performed as above except uninfected MT-4 cells were added to each well containing test compound. In addition, 10 μM puromycin was added to the last column of each assay plate to assess a base level of cytotoxicity.” for “fits.”
For another data set, the system named is pLai RLuc reporter virus. The data set is described as follows: HIV MT-4 serum shift antiviral reporter assay. The note with it: Human immunodeficiency virus 1, 72 h. On the procedure:
To quantify the amount of protein binding to human serum, compounds were serially diluted (1:3) in DMSO and acoustically transferred onto 384-well assay plates via a Labcyte ECHO robot. Each plate contained up to 8 test compounds, including negative and positive controls, (DMSO, 5 μM AZT respectively). Assay plates were prepared in duplicate, and tested in either CCM (cell culture media) or HS/CCM (human serum/cell culture media). MT-4 cells were first pre-infected with pLai RLuc reporter virus for 2 h at 37° C., then further diluted in either CCM (RPMI media, 10% FBS, 1% P/S) or HS/CCM (RPMI media, 10% FBS, 50% HS, 1% P/S), and subsequently added to each plate using a Biotek Micro Flow dispenser. After a 72-h incubation in a humidified and temperature controlled incubator (37° C.), Renilla Glo (Promega) was added to all assay plates and chemiluminescence read using an Envision plate-reader. EC50 values were defined as the compound concentration that causes a 50% decrease in luminescence signal, and were calculated using a sigmoidal dose-response model to generate curve fits. To determine the amount of protein binding, EC50 fold shifts (or EC50 shifts) were calculated by dividing EC50 (HS/CCM)/EC50 (CCM).
For orientation: A reporter such as luciferase makes a cellular process visible.

The mark [2] stands for this setting: uninfected MT-4 cells, 5 days, Cell Titer Glo, read-out: CC50.
[3] abbreviates: read-out: RLUC 50% HS (nM), HS/CCM: 50% human serum, 72 h, Renilla Glo.
The mark [4] stands for this setting: read-out: RLUC CCM (nM), cell culture media (RPMI, 10% FBS), 72 h, Renilla Glo.

Read-outs that look alike come from different tables or passages of the source.

Take `C[C@H]1C=CCN2CN1C(=O)c1c(O)c(=O)c(C(=O)NCc3c(F)cc(F)cc3F)cn12` [Example C5, (10S)-6-hydroxy-10-methyl-5,8-dioxo-N-[(2,4,6-trifluorophenyl)methyl]-1,2,9-triazatricyclo[7.4.1.02,7]tetradeca-3,6,11-triene-4-carboxamide]: the EC50 in the data set on HIV-1 (IIIB) came to 3.4 nM; with pLai RLuc reporter virus (setting [3]), 40.4 nM; with pLai RLuc reporter virus (setting [4]), 0.42 nM. Besides, in data set [1] (setting [2]), the CC50 at 5 days stood at 14200 nM.
Take `O=C(NCc1c(F)cc(F)cc1F)c1cn2c(c(O)c1=O)C(=O)N1CCCCN2C1Cc1ccccc1` (centres unmarked) [Example C6, 13-benzyl-8-hydroxy-7,9-dioxo-N-(2,4,6-trifluorobenzyl)-2,3,4,5,7,9-hexahydro-1,6-methanopyrido[1,2-b][1,2,5]triazonine-10-carboxamide]: the results for the EC50 with HIV-1 (IIIB), in the data set on pLai RLuc reporter virus (setting [3]) and in the data set on pLai RLuc reporter virus (setting [4]) were 7.5 nM, 23.1 nM and 3.5 nM, respectively. In addition, the CC50 at 5 days in data set [1] (setting [2]) is 9880 nM.
In turn, `C[C@H]1C=CC2(COC(C)(C)C2)N2CN1C(=O)c1c(O)c(=O)c(C(=O)NCc3c(F)cc(F)cc3F)cn12` (stereo partly drawn) [Example C9, (1′S,5′S)-8′-hydroxy-5,5,5′-trimethyl-7′,9′-dioxo-N-(2,4,6-trifluorobenzyl)-4,5,7′,9′-tetrahydro-2H,5′H-spiro[furan-3,2′-[1,6]methanopyrido[1,2-b][1,2,5]triazonine]-10′-carboxamide] gave a CC50 at 5 days in data set [1] (CC50 (nM)) of 25300 nM.
On to `C[C@@H]1C/C=C\[C@H](C)N2CN1n1cc(C(=O)NCc3c(F)cc(F)cc3F)c(=O)c(O)c1C2=O` [Example C12, (1R,2S,6R,Z)-9-hydroxy-2,6-dimethyl-8,10-dioxo-N-(2,4,6-trifluorobenzyl)-3,6,8,10-tetrahydro-2H-1,7-methanopyrido[1,2-b][1,2,5]triazecine-11-carboxamide], for which the EC50 in the data set with HIV-1 (IIIB) was determined as 3.4 nM; with pLai RLuc reporter virus (setting [3]) it was 273 nM; in the data set on pLai RLuc reporter virus (setting [4]) it was 0.77 nM. Moreover, in data set [1] (setting [2]), the CC50 at 5 days came to 10800 nM.
For `C[C@@H]1CCCCN2CN1n1cc(C(=O)NCc3ccc(F)cc3F)c(=O)c(O)c1C2=O` [Example C13, (1S,2R)—N-(2,4-difluorobenzyl)-9-hydroxy-2-methyl-8,10-dioxo-3,4,5,6,8,10-hexahydro-2H-1,7-methanopyrido[1,2-b][1,2,5]triazecine-11-carboxamide], in that order: 1.3 nM, 4.07 nM, 0.25 nM and 8870 nM.
For `C[C@@H]1C/C=C\CN2CN1n1cc(C(=O)NCc3c(F)cc(F)cc3F)c(=O)c(O)c1C2=O` [Example C16, (1S,2R,Z)-9-hydroxy-2-methyl-8,10-dioxo-N-(2,4,6-trifluorobenzyl)-3,6,8,10-tetrahydro-2H-1,7-methanopyrido[1,2-b][1,2,5]triazecine-11-carboxamide], in that order: 1.1 nM, 19.4 nM, 0.32 nM and 11400 nM.
The matching figures for `C[C@@H]1CCCCN2CN1n1cc(C(=O)NCc3c(F)cc(F)cc3F)c(=O)c(O)c1C2=O` [Example C17, (1S,2R)-9-hydroxy-2-methyl-8,10-dioxo-N-(2,4,6-trifluorobenzyl)-3,4,5,6,8,10-hexahydro-2H-1,7-methanopyrido[1,2-b][1,2,5]triazecine-11-carboxamide]: 0.91 nM, 7.12 nM, 0.16 nM and 11200 nM.
Regarding `C[C@@H]1CCC[C@@H](C)N2CN1C(=O)c1c(O)c(=O)c(C(=O)NCc3c(F)cc(F)cc3F)cn12` [Example C22, (1S,2R,6R)-9-hydroxy-2,6-dimethyl-8,10-dioxo-N-(2,4,6-trifluorobenzyl)-3,4,5,6,8,10-hexahydro-2H-1,7-methanopyrido[1,2-b][1,2,5]triazecine-11-carboxamide], the EC50 in the data set on HIV-1 (IIIB) amounted to 2.2 nM. For the same compound, the CC50 at 5 days in data set [1] (setting [2]) turned out to be 16300 nM.
In the case of `CO[C@@H]1[C@H](OC)[C@@H](C)N2CN(C(=O)c3c(O)c(=O)c(C(=O)NCc4c(F)cc(F)cc4F)cn32)[C@H]1C` [Example C32, (1S,2R,3R,4S,5S)-8-hydroxy-3,4-dimethoxy-2,5-dimethyl-7,9-dioxo-N-(2,4,6-trifluorobenzyl)-2,3,4,5,7,9-hexahydro-1,6-methanopyrido[1,2-b][1,2,5]triazonine-10-carboxamide], the EC50 with HIV-1 (IIIB) worked out at 2.4 nM; in the data set on pLai RLuc reporter virus (setting [3]), 1.04 nM; with pLai RLuc reporter virus (setting [4]), 0.55 nM. For the same compound, the 50% cytotoxic concentration (CC50) at 5 days in data set [1] (setting [2]) was determined as 28000 nM.
With `CO[C@@H]1C[C@@H](C)N2CN(C(=O)c3c(O)c(=O)c(C(=O)NCc4c(F)cc(F)cc4F)cn32)[C@H]1C` [Example C33, (1S,2R,4R,5S)-8-hydroxy-4-methoxy-2,5-dimethyl-7,9-dioxo-N-(2,4,6-trifluorobenzyl)-2,3,4,5,7,9-hexahydro-1,6-methanopyrido[1,2-b][1,2,5]triazonine-10-carboxamide], the EC50 with HIV-1 (IIIB) is 4 nM; with pLai RLuc reporter virus (setting [3]), 4.3 nM; in the data set with pLai RLuc reporter virus (setting [4]), 1.8 nM. Further, the CC50 at 5 days in data set [1] (setting [2]) was determined as 32900 nM.
The matching figures for `C[C@@H]1C[C@H](F)[C@H](C)N2CN1n1cc(C(=O)NCc3c(F)cc(F)cc3F)c(=O)c(O)c1C2=O` [Example C34, (1S,2R,4S,5S)-4-fluoro-8-hydroxy-2,5-dimethyl-7,9-dioxo-N-(2,4,6-trifluorobenzyl)-2,3,4,5,7,9-hexahydro-1,6-methanopyrido[1,2-b][1,2,5]triazonine-10-carboxamide]: 1.4 nM, 938 nM, 0.59 nM and 8360 nM.
In the case of `C[C@H]1CC[C@@H](CF)N2CN1C(=O)c1c(O)c(=O)c(C(=O)NCc3ccc(F)cc3F)cn12` [Example C45, (1S,2S,5S)—N-(2,4-difluorobenzyl)-2-(fluoromethyl)-8-hydroxy-5-methyl-7,9-dioxo-2,3,4,5,7,9-hexahydro-1,6-methanopyrido[1,2-b][1,2,5]triazonine-10-carboxamide], the EC50 with HIV-1 (IIIB) worked out at 1.8 nM. The CC50 at 5 days in data set [1] (setting [2]) came out at 11000 nM.
Take `C[C@H]1CCC(C)(C)N2CN1C(=O)c1c(O)c(=O)c(C(=O)NCc3c(F)cc(F)cc3F)cn12` [Example C87, (1S,5S)-8-hydroxy-2,2,5-trimethyl-7,9-dioxo-N-(2,4,6-trifluorobenzyl)-2,3,4,5,7,9-hexahydro-1,6-methanopyrido[1,2-b][1,2,5]triazonine-10-carboxamide]: the EC50 turned out to be 198 nM with pLai RLuc reporter virus (setting [3]) and 0.68 nM in the data set with pLai RLuc reporter virus (setting [4]).
Take `CC1N2C(=O)c3c(O)c(=O)c(C(=O)NCc4c(F)cc(F)cc4F)cn3N1[C@H](C)C=C[C@@H]2C` (stereo partly drawn) [Example C100, (1S,2R,5S)-8-hydroxy-2,5,13-trimethyl-7,9-dioxo-N-(2,4,6-trifluorobenzyl)-2,5,7,9-tetrahydro-1,6-methanopyrido[1,2-b][1,2,5]triazonine-10-carboxamide]: the EC50 in the data set on HIV-1 (IIIB) was 0.8 nM. The CC50 at 5 days in data set [1] (setting [2]) stood at 16200 nM.
For `CCC1N2C(=O)c3c(O)c(=O)c(C(=O)NCc4c(F)cc(F)cc4F)cn3N1[C@H](C)C=C[C@@H]2C` (stereo partly drawn) [Example C101, (1S,2R,5S)-13-ethyl-8-hydroxy-2,5-dimethyl-7,9-dioxo-N-(2,4,6-trifluorobenzyl)-2,5,7,9-tetrahydro-1,6-methanopyrido[1,2-b][1,2,5]triazonine-10-carboxamide], in the data set with HIV-1 (IIIB), the EC50 was 19.7 nM. In data set [1] (setting [2]), the CC50 at 5 days came to 33500 nM.
